Measured values taken from patent publication US6395745B1, “Alkaloid halide salts of swainsonine and methods of use” (priority 1997, dated 2002).

Assays:
STAT1 = STAT1 level and activation in mice (Western blot, immunoblotting); format: in vivo, DBA/2 mice
Description: DBA/2 mice received daily ip injections of SW hydrochloride (20 μg/day) for 10 days. On day 11 the mice were injected with Poly IC (100 μg/mouse) or an equivalent volume of PBS 2 h before being sacrificed. Spleen and liver tissues were collected and immediately frozen in liquid nitrogen. Nuclear extracts were prepared and analyzed (8 μg) by immunoblotting with the indicated antibodies. […] Cytosol extracts were prepared and analyzed (20 μg) by immunoblotting with the indicated antibodies. Spleen nuclear extracts were prepared and analyzed (8 μg) by immunoblotting with anti-phosphotyrosine antibodies.

lysosomal mannosidase = molecular target: T1, lysosomal mannosidase (Homo sapiens, UniProt O00754); test: Inhibition of lysosomal mannosidase in vitro; format: biochemical; settings: pH 5.0, 60 min at 37° C.
T1 sequence (O00754 50-1011): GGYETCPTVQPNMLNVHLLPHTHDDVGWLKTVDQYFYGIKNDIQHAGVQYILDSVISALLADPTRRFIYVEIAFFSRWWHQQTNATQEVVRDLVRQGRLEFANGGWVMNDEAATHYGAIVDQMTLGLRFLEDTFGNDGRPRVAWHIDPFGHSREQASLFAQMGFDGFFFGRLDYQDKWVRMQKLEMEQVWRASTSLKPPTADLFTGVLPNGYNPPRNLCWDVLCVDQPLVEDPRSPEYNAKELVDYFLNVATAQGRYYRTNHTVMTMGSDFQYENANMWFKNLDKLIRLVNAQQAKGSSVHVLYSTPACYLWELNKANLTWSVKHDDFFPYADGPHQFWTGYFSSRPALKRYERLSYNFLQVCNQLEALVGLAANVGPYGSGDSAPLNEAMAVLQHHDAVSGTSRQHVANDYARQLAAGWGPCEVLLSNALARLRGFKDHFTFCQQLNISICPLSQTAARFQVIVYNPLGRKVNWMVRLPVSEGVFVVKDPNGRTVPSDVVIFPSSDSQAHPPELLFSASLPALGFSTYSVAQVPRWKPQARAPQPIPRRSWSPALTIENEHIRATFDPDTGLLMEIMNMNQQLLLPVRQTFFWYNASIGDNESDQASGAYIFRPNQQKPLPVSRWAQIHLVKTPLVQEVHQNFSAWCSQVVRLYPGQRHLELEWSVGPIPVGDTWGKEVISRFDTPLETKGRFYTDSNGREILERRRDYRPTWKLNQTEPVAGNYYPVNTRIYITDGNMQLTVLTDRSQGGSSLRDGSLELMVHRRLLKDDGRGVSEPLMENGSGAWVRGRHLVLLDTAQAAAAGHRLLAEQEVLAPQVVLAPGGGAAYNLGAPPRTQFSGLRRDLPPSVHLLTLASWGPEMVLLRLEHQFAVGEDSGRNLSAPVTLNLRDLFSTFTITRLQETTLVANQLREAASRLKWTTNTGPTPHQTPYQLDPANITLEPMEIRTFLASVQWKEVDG
Description: The effects of the compounds of the invention on lysosomal mannosidase were measured by adding (10 μl) of the compounds into 96 well Elisa plates followed by the addition of 200 mM sodium acetate pH 5.0 and 25 μl of 10 mM p-nitrophenyl α-D-mannospyranoside. 15 μl of lysosomal mannosidase ( about 8 mM/mL) was added to each well and the plates were incubated for 60 min at 37° C. The reaction was stopped by the addition of 50 μl of 0.5M sodium carbonate and formation of p-nitrophenol was measured with a plate set at 405.

STAT3 = STAT3 level in mice (Western blot); format: in vivo, DBA/2 mice; settings: 20 μg/day ip, spleen
Description: To measure the level and activation of STATs, DBA/2 mice are treated for 6-9 days with 20 μg/mouse/day of swainsonine hydrochloride followed by a single intraperitoneal (i.p) injection of either sterile saline or 100 μg of poly IC (i.e., dsRNA, a surrogate for virus) in sterile saline. Two hours later an optimal time for STAT activation, spleens of the mice are homogenized and cytosolic and nuclear cell extracts are prepared. STAT protein levels are measured in the cytosolic and nuclear fractions by Western blot analysis. STAT phosphorylation (i.e. activation) is measured following immunoprecipitation using anti-phosphotyrosine antibodies.

[1] = Preformulation hygroscopicity study of bulk drug (water uptake, Karl Fischer); format: physicochemical; settings: for water absorbed by Karl Fischer: after 48 hours of storage; for water absorbed: 75% RH
Description: Preformulation studies of swainsonine hydrochloride, bulk drug substance, and in combination with powder and semisolid fill gelatin capsules were conducted with respect to the following: hygroscopicity, pH, stability, and solubility. […] At 20% and 50% RH it absorbed 1.9% and 2.1% of water by Karl Fischer after 48 hours of storage. The moisture uptake diminishes when anhydrous powder excipients (e.g. lactose anhydrous and mannitol powder) are used to formulate the pharmaceutical active into a hard capsule.

[2] = tested on: granulocyte-macrophage progenitor cells (CFU-GM); test: Murine bone marrow progenitor cell assay in methylcellulose, CFU-GM; format: cell-based, C57BL/6 mouse; settings: FIG. 11
Description: The healthy and GD0039 treated mice were euthanized by CO2 asphyxiation. Bone marrow (BM) cell suspensions were prepared under sterile conditions by flushing both femurs and tibiae with IMDM/FBS using a 26 gauge needle. Single cell suspensions were made up to 10.0 ml IMDM/FBS. The concentration of nucleated cells in each suspension was determined by triplicate counts on a hemocytometer. A portion of the cells was further diluted in media to the appropriate concentration before plating for the progenitor assay.
Colony-forming units (CFUs) were estimated by the methylcellulose method. One milliliter suspensions, containing 2×10^5 nucleated BM cells, in 0.1 ml of IMDM and 0.9 ml MethoCult (M3330), were plated in triplicate in 35 mm tissue culture dishes. Swainsonine hydrochloride or swainsonine were added to certain plates, in 0.1 ml of IMDM at concentrations of 30 μg/ml and 3 μg/ml, which gave final concentrations of […]. The MethoCult M3330 contains 30% FBS and 10 μg/ml erythropoietin and is designed for the growth of early erythroid progenitor cells (CFU-E), which were scored after 3 days of incubation at 37° C. in a humidified atmosphere containing 5% CO2. […] Colonies containing more than 20 cells were scored using an inverted microscope with brightfield optics and 40× or 100× magnification. […]

Cl.O[C@H]1[C@H]2[C@H](O)CCCN2C[C@@H]1O [swainsonine hydrochloride, (−)-(1S,2S,8R,8aR)-1,2,8-trihydroxyoctahydro-indolizidine hydrochloride salt]
activation of STAT1 in spleen (STAT1; 20 μg/day ip for 10 days, then Poly IC 100 μg/mouse, FIG. 10A): increases the activation | STAT1 cytosolic protein levels (STAT1; 20 μg/day ip, spleen): enhanced | IC50 (lysosomal mannosidase): 45 ± 10 nM | STAT3 cytosolic protein levels (STAT3): remained unchanged | water absorbed by Karl Fischer ([1]; 20% RH): 1.9% | water absorbed by Karl Fischer ([1]; 50% RH): 2.1% | water absorbed ([1]; first 2 hours): approximately 8 % (w/w) | water absorbed ([1]; first 8 hours): ~24 % (w/w) | hygroscopicity ([1]; bulk drug): highly hygroscopic | effect on granulocyte-macrophage progenitor cells in vitro [2]: stimulate
